Data from the NIST ThermoML archive (doi:10.1021/je900864n).

Tests used:
[1] = 101.33 kPa, Liquid
[2] = refractive index (Na D-line) (dimensionless); details: 101.33 kPa, Liquid, Standard Abbe refractometry
[3] = refractive index (other wavelength) (dimensionless); details: 101 kPa, Liquid, Wavelength=63.28 nm, Standard Abbe refractometry
[4] = refractive index (other wavelength) (dimensionless); wn = mass fraction of the nth substance listed; details: 101 kPa, Liquid, Wavelength=632.8 nm, Standard Abbe refractometry

OCCCCO [1,4-butanediol]
Details | mass density [kg/m3] | refractive index
[1], 293.15 K | 1016.37 | –
[1], 298.15 K | 1013.04 | –
[1], 303.15 K | 1009.96 | –
[1], 308.15 K | 1006.75 | –
[1], 313.15 K | 1003.55 | –
[1], 318.15 K | 1000.72 | –
[2], 294.23 K | – | 1.4447
[2], 297.67 K | – | 1.4437
[2], 300.86 K | – | 1.4428
[2], 303.23 K | – | 1.4422
[2], 306.21 K | – | 1.4414
[2], 309.13 K | – | 1.4406
[2], 313.69 K | – | 1.4393

OCCCO [propan-1,3-diol]
Details | mass density [kg/m3] | refractive index
[1], 293.15 K | 1053.48 | –
[1], 298.15 K | 1050.28 | –
[1], 303.15 K | 1047.26 | –
[1], 308.15 K | 1044.11 | –
[1], 313.15 K | 1040.94 | –
[3], 287.46 K | – | 1.4396
[3], 288.88 K | – | 1.4392
[3], 290.94 K | – | 1.4387
[3], 293.1 K | – | 1.4381
[3], 295.16 K | – | 1.4375
[3], 297.02 K | – | 1.437
[3], 299.09 K | – | 1.4365
[3], 301.21 K | – | 1.4359

OCCCO [propan-1,3-diol] + CCCCn1cc[n+](C)c1.F[B-](F)(F)F
[4]
Details | refractive index
286.8 K, w2 = 0.698 | 1.424
286.81 K, w2 = 0.796 | 1.4233
287.24 K, w2 = 0.901 | 1.4228
288.87 K, w2 = 0.796 | 1.4228
288.88 K, w2 = 0.901 | 1.4224
289.37 K, w2 = 0.698 | 1.4234
290.78 K, w2 = 0.602 | 1.4239
290.86 K, w2 = 0.796 | 1.4223
291 K, w2 = 0.901 | 1.4219
291.2 K, w2 = 0.698 | 1.4229
292.89 K, w2 = 0.796 | 1.4218
292.95 K, w2 = 0.901 | 1.4214
293.29 K, w2 = 0.602 | 1.4232
293.3 K, w2 = 0.698 | 1.4223
294.94 K, w2 = 0.698 | 1.4219
294.99 K, w2 = 0.901 | 1.4209
295.08 K, w2 = 0.602 | 1.4227
295.86 K, w2 = 0.796 | 1.4211
296.02 K, w2 = 0.513 | 1.4235
296.98 K, w2 = 0.602 | 1.4222
297 K, w2 = 0.901 | 1.4204
297.16 K, w2 = 0.0947 | 1.4328
297.94 K, w2 = 0.698 | 1.4211
297.96 K, w2 = 0.796 | 1.4206
298.14 K, w2 = 0.513 | 1.4229
298.49 K, w2 = 0.0947 | 1.4325
298.98 K, w2 = 0.602 | 1.4217
299.51 K, w2 = 0.384 | 1.4245
299.54 K, w2 = 0.299 | 1.4263
299.6 K, w2 = 0.194 | 1.4289
300 K, w2 = 0.0947 | 1.4321
300 K, w2 = 0.513 | 1.4224
300 K, w2 = 0.901 | 1.4196
301.08 K, w2 = 0.194 | 1.4285
301.1 K, w2 = 0.602 | 1.4211
301.22 K, w2 = 0.384 | 1.424
301.4 K, w2 = 0.299 | 1.4258
301.52 K, w2 = 0.0947 | 1.4317
302.02 K, w2 = 0.513 | 1.4218
302.17 K, w2 = 0.194 | 1.4282
303.06 K, w2 = 0.0947 | 1.4313
303.53 K, w2 = 0.384 | 1.4234
303.55 K, w2 = 0.299 | 1.4252
304.01 K, w2 = 0.513 | 1.4212
304.13 K, w2 = 0.194 | 1.4276
304.93 K, w2 = 0.513 | 1.4209
305.12 K, w2 = 0.0947 | 1.4308
305.28 K, w2 = 0.384 | 1.4229
305.3 K, w2 = 0.299 | 1.4247
305.51 K, w2 = 0.194 | 1.4272
307.32 K, w2 = 0.194 | 1.4267
307.43 K, w2 = 0.299 | 1.4241
307.44 K, w2 = 0.384 | 1.4223
308.96 K, w2 = 0.384 | 1.4219
309.08 K, w2 = 0.299 | 1.4236
